# Laboratory results reported in US20230085307A1, “PYRIDAZINONE COMPOUND AND HERBICIDE” (NISSAN CHEMICAL CORPORATION, priority 2019, published 2023).
# Tested on: redroot pigweed
# Assay: Test Example 4: herbicidal effect by soil treatment (Table 19, symbol N)
# Type: in vivo, redroot pigweed (Amaranthus retroflexus)
# Settings: amount of applied herbicide 320 g/ha
# Procedure, shortened: (§1)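 Seeds were sown in sterilized diluvial soil and covered with about 1.5 cm of soil. An emulsion formulation diluted with water to a predetermined herbicide amount was sprayed evenly onto the soil surface. Plants grew in a greenhouse at 25° C. to 30° C., and the effect was scored three weeks after application using criteria from an earlier test.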
row,Structure (SMILES),"herbicidal effect rating, N: redroot pigweed"
1,COc1ccc(-c2sc3ccccc3c2-c2c(O)c(C)nn(C)c2=O)cc1OC [1-072],5 (Herbicidal rate of 90% or more (almost completely withered))

# Tested on: barnyard grass
# Assay: Test Example 3: herbicidal effect by foliage application, Wagner pot (Table 18, symbol H)
# Type: in vivo, barnyard grass (Echinochloa crus-galli)
# Settings: 320 g/ha
# Procedure, shortened: (§2)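 Plants were sown in alluvial soil held under 0.1–0.5 cm standing water and grown 14 days in a greenhouse at 25–30 °C. An emulsifiable formulation, water-diluted to the set dose, was then sprayed onto the foliage, and effects were scored three weeks later using previously defined criteria.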
row,Structure (SMILES),"herbicidal effect on H (barnyard grass), rating 0-5"
1,COc1ccc(-c2sc3ccccc3c2-c2c(O)c(C)nn(C)c2=O)cc1OC [1-072],5 (Herbicidal rate of 90% or more (almost completely withered))

# Tested on: Italian ryegrass
# Assay: Test Example 4: herbicidal effect by soil treatment (Table 19, symbol K)
# Type: in vivo, Italian ryegrass (Lolium multiflorum)
# Settings: amount of applied herbicide 320 g/ha
# Procedure, shortened: as §1
row,Structure (SMILES),"herbicidal effect rating, K: Italian ryegrass"
1,COc1ccc(-c2sc3ccccc3c2-c2c(O)c(C)nn(C)c2=O)cc1OC [1-072],5 (Herbicidal rate of 90% or more (almost completely withered))

# Tested on: blackgrass
# Assay: Test Example 5: herbicidal effect by foliage application, plastic box (Table 20, symbol J)
# Type: in vivo, blackgrass (Alopecurus myosuroides)
# Settings: foliage application, 320 g/ha, three weeks after application
# Procedure, shortened: (§3)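 Plants sown in sterilized diluvial soil and grown 14 days in a greenhouse at 25° C to 30° C, then sprayed on the foliage with the compound's emulsion diluted in water to a predetermined herbicide amount. Injury to weeds and crops scored three weeks after application on a visual rating scale.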
row,Structure (SMILES),"herbicidal effect grade, J: blackgrass"
1,COc1ccc(-c2sc3ccccc3c2-c2c(O)c(C)nn(C)c2=O)cc1OC [1-072],3 (Herbicidal rate of 40% or more and less than 70%)

# Tested on: rice flat sedge
# Assay: Test Example 3: herbicidal effect by foliage application, Wagner pot (Table 18, symbol E)
# Type: in vivo, rice flat sedge (Cyperus iria)
# Settings: 320 g/ha
# Procedure, shortened: as §2
row,Structure (SMILES),"herbicidal effect on E (rice flat sedge), rating 0-5"
1,COc1ccc(-c2sc3ccccc3c2-c2c(O)c(C)nn(C)c2=O)cc1OC [1-072],5 (Herbicidal rate of 90% or more (almost completely withered))

# Tested on: Japanese bulrush
# Assay: Test Example 1: herbicidal activity, application before weed generation under submerged conditions (Table 16, symbol B)
# Type: in vivo, Japanese bulrush (Schoenoplectus juncoides)
# Settings: 320 g/ha applied herbicide
# Procedure, shortened: (§4)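 Submerged Wagner pots (alluvial soil, 4 cm water) sown with weed seeds and planted with 2.5-leaf rice seedlings; emulsifiable concentrate diluted in water applied to water surface on sowing day. Held in greenhouse at 25-30 °C; injury scored 0-5 by herbicidal rate after three weeks.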
row,Structure (SMILES),Herbicidal effect on B: Japanese bulrush (grade 0-5)
1,COc1ccc(-c2sc3ccccc3c2-c2c(O)c(C)nn(C)c2=O)cc1OC [1-072],3 (Herbicidal rate of 40% or more and less than 70%)

# Tested on: late watergrass
# Assay: Test Example 1: herbicidal activity, application before weed generation under submerged conditions (Table 16, symbol A)
# Type: in vivo, late watergrass (Echinochloa oryzicola)
# Settings: 320 g/ha applied herbicide
# Procedure, shortened: as §4
row,Structure (SMILES),Herbicidal effect on A: late watergrass (grade 0-5)
1,COc1ccc(-c2sc3ccccc3c2-c2c(O)c(C)nn(C)c2=O)cc1OC [1-072],3 (Herbicidal rate of 40% or more and less than 70%)

# Tested on: Chinese sprangletop
# Assay: Test Example 3: herbicidal effect by foliage application, Wagner pot (Table 18, symbol D)
# Type: in vivo, chinese sprangletop (Leptochloa chinensis)
# Settings: 320 g/ha
# Procedure, shortened: as §2
row,Structure (SMILES),"herbicidal effect on D (Chinese sprangletop), rating 0-5"
1,COc1ccc(-c2sc3ccccc3c2-c2c(O)c(C)nn(C)c2=O)cc1OC [1-072],5 (Herbicidal rate of 90% or more (almost completely withered))

# Tested on: Italian ryegrass
# Assay: Test Example 5: herbicidal effect by foliage application, plastic box (Table 20, symbol K)
# Type: in vivo, Italian ryegrass (Lolium multiflorum)
# Settings: foliage application, 320 g/ha, three weeks after application
# Procedure, shortened: as §3
row,Structure (SMILES),"herbicidal effect grade, K: Italian ryegrass"
1,COc1ccc(-c2sc3ccccc3c2-c2c(O)c(C)nn(C)c2=O)cc1OC [1-072],5 (Herbicidal rate of 90% or more (almost completely withered))

# Tested on: redroot pigweed
# Assay: Test Example 5: herbicidal effect by foliage application, plastic box (Table 20, symbol N)
# Type: in vivo, redroot pigweed (Amaranthus retroflexus)
# Settings: foliage application, 320 g/ha, three weeks after application
# Procedure, shortened: as §3
row,Structure (SMILES),"herbicidal effect grade, N: redroot pigweed"
1,COc1ccc(-c2sc3ccccc3c2-c2c(O)c(C)nn(C)c2=O)cc1OC [1-072],5 (Herbicidal rate of 90% or more (almost completely withered))

# Tested on: barnyard grass
# Assay: Test Example 5: herbicidal effect by foliage application, plastic box (Table 20, symbol H)
# Type: in vivo, barnyard grass (Echinochloa crus-galli)
# Settings: foliage application, 320 g/ha, three weeks after application
# Procedure, shortened: as §3
row,Structure (SMILES),"herbicidal effect grade, H: barnyard grass"
1,COc1ccc(-c2sc3ccccc3c2-c2c(O)c(C)nn(C)c2=O)cc1OC [1-072],5 (Herbicidal rate of 90% or more (almost completely withered))

# Tested on: late watergrass
# Assay: Test Example 2: herbicidal activity, application during weed generation under submerged conditions (Table 17, symbol A)
# Type: in vivo, late watergrass (Echinochloa oryzicola)
# Settings: AAH 320 g/ha; application during weed generation, submerged conditions
# Procedure, shortened: (§5)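 3-wk visual-criteria score after one water-surface dose. Emulsion formulation, water-diluted to set rate; applied at 1–2 leaf stage; alluvial soil, 4 cm standing water; seeds co-sown; greenhouse 25–30° C.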
row,Structure (SMILES),"herbicidal effect rating, A: late watergrass"
1,COc1ccc(-c2sc3ccccc3c2-c2c(O)c(C)nn(C)c2=O)cc1OC [1-072],2 (Herbicidal rate of 20% or more and less than 40%)

# Tested on: wild oat
# Assay: Test Example 5: herbicidal effect by foliage application, plastic box (Table 20, symbol I)
# Type: in vivo, wild oat (Avena fatua)
# Settings: foliage application, 320 g/ha, three weeks after application
# Procedure, shortened: as §3
row,Structure (SMILES),"herbicidal effect grade, I: wild oat"
1,COc1ccc(-c2sc3ccccc3c2-c2c(O)c(C)nn(C)c2=O)cc1OC [1-072],4 (Herbicidal rate of 70% or more and less than 90%)

# Tested on: oval-leafed pondweed
# Assay: Test Example 2: herbicidal activity, application during weed generation under submerged conditions (Table 17, symbol C)
# Type: in vivo, oval-leafed pondweed (Monochoria vaginalis)
# Settings: AAH 320 g/ha; application during weed generation, submerged conditions
# Procedure, shortened: as §5
row,Structure (SMILES),"herbicidal effect rating, C: oval-leafed pondweed"
1,COc1ccc(-c2sc3ccccc3c2-c2c(O)c(C)nn(C)c2=O)cc1OC [1-072],5 (Herbicidal rate of 90% or more (almost completely withered))

# Tested on: windgrass
# Assay: Test Example 4: herbicidal effect by soil treatment (Table 19, symbol L)
# Type: in vivo, windgrass (Apera spica-venti)
# Settings: amount of applied herbicide 320 g/ha
# Procedure, shortened: as §1
row,Structure (SMILES),"herbicidal effect rating, L: windgrass"
1,COc1ccc(-c2sc3ccccc3c2-c2c(O)c(C)nn(C)c2=O)cc1OC [1-072],0 (Herbicidal rate of 5% or less (almost no effect))

# Tested on: green foxtail
# Assay: Test Example 5: herbicidal effect by foliage application, plastic box (Table 20, symbol G)
# Type: in vivo, green foxtail (Setaria viridis)
# Settings: foliage application, 320 g/ha, three weeks after application
# Procedure, shortened: as §3
row,Structure (SMILES),"herbicidal effect grade, G: green foxtail"
1,COc1ccc(-c2sc3ccccc3c2-c2c(O)c(C)nn(C)c2=O)cc1OC [1-072],5 (Herbicidal rate of 90% or more (almost completely withered))
